Measured values from patent US9180155B2, “Compositions from Nigella sativa” (Bio Nexus, Ltd, priority 2013, dated 2015).

Test system: 3T3-L1 adipocytes
Assay: Lipolysis (glycerol assay) in 3T3-L1 adipocytes
Type: cell-based, murine
Conditions: forskolin 82 μg/mL, test materials 5 μg/mL (FIG. 9)
Experimental: Culture and treatment of 3T3-L1 adipocytes and C2C12 myocytes was as described in Example 5. Concentrations of the forskolin positive control and test materials are listed in FIG. 9 for adipocytes and FIG. 10 for myocytes. Free fatty acid release from 3T3-L1 adipocytes or C2C12 myocytes was quantified by measuring glycerol secretion into the medium. Glycerol was measured spectrophotometrically using the Free Glycerol Determination Kit ([…], Sigma) and an EL 312e Microplate BIO-KINETICS spectrophotometer (BioTek, Winooski, Vt.). Glycerol release from adipocytes and myocytes was expressed, respectively, as the percent increase in free fatty acid secretion (FIG. 9) and relative glycerol content (glycerol index FIG. 10) ±95% confidence intervals of eight observations for one of three representative experiments.

## CC1=CC(=O)C(C(C)C)=CC1=O [Thymoquinone, thymoquinone]
  free fatty acid release in adipocytes: induced free fatty acid release
